Data from patent publication US20090136514A1, “Tetracyclines for Treating Ocular Diseases and Disorders” (priority 2005, published 2009).

Key:
[1] = test system: VEGF-mediated retinal vascular damage; assay: VEGF-induced retinal vascular leakage in rabbits, fundus photography and fluorescein angiography; type: in vivo, Dutch Belted rabbits; parameters: Leakage, mean score / Hemorrhage/Microaneurism, mean score / Edema, mean score: scale not given here; conditions: for Edema, mean score / Hemorrhage/Microaneurism, mean score / Leakage, mean score / Edema, Difference (Doxy-Vehicle) / (Kenalog-Vehicle) / Hemorrhage/Microaneurism, Difference (Doxy-Vehicle) / (Kenalog-Vehicle) / Leakage, Difference (Doxy-Vehicle) / (Kenalog-Vehicle) / Edema, Difference (Kenalog-Doxy) / Hemorrhage/Microaneurism, Difference (Kenalog-Doxy) / Leakage, Difference (Kenalog-Doxy): 48 hours post-dosing; for Edema, mean score / Hemorrhage/Microaneurism, mean score / Leakage, mean score: 50 μl intravitreal before VEGF165; for Edema, Difference (Doxy-Vehicle) / (Kenalog-Vehicle) / Hemorrhage/Microaneurism, Difference (Doxy-Vehicle) / (Kenalog-Vehicle) / Leakage, Difference (Doxy-Vehicle) / (Kenalog-Vehicle): difference of mean scores to vehicle; for Edema, Difference (Kenalog-Doxy) / Hemorrhage/Microaneurism, Difference (Kenalog-Doxy) / Leakage, Difference (Kenalog-Doxy): difference of mean scores to Doxy
Procedure: Retinal vascular leakage was induced in rabbits by intravitreal injection of VEGF according to the procedures set forth in Edelman et al., Experimental Eye Research 80:249-258 (2005). The protective effect of doxycycline on VEGF-mediated retinal vascular damage was assessed. A total of 12 Dutch Belted rabbits (Covance) were anesthetized with isoflurane inhalation and topical 0.5% proparacaine hydrochloride and each eye studied (24 eyes total). Four animals received a 50 μl intravitreal injection of 0.025% bovine serum albumin (BSA) in sterile phosphate-buffered saline (PBS) (Dow Pharmaceutical Sciences) (vehicle, eight eyes total). Doxycycline was formulated from anhydrous doxycycline (Dow Pharmaceutical Sciences) and reconstituted as a saturated solution of doxycycline in 0.025% BSA in PBS assayed to be at a final doxycycline concentration of approximately 0.067 weight percent. Four animals received 50 μl of the doxycycline formulation in each eye (eight eyes total). Four animals received 50 μl of a 40 mg/mL solution of triamcinolone acetonide (Kenalog®, Bristol Myers-Squibb) in 0.025% BSA in PBS (positive control, eight eyes total). Each injection was followed by a 50 μl intravitreal injection of a 10 μg/mL solution of recombinant human VEGF165 (Vascular Endothelial Growth Factor 165 amino acid residue variant, R&D Systems) in 0.025% BSA in PBS. A 30-gauge ⅝-inch needle was used for the injections. VEGF was purchased from R&D Systems (Minneapolis, Minn.).
Prior to injections, eyes were prepared for injection with 1% tropicamide (2 drops), followed ten minutes later by phenylephrine hydrochloride 2.5% (2 drops). An ophthalmic Betadine solution was then used to moisten the eyes. […]. After five minutes, the Betadine was washed out of the eyes with sterile saline and proparacaine hydrochloride was delivered to each eye.
Animals were then anesthetized with an intravenous injection of a ketamine/xylazine cocktail (77 mg/mL ketamine, 23 mg/mL xylazine) at 0.1 mL/kg.
Vascular leakage, hemorrhage, and edema were assessed using fundus photography and fluorescein angiography (see Table 1). Rabbits were anesthetized with subcutaneous 100 mg/mL ketamine at 35 mg/kg and 100 mg/mL xylazine at 7 mg/kg, eyes were dilated with topical 1% tropicamide, and angiograms were obtained with a Topeon TRC-501X retinal camera coupled to a personal computer with IMAGEnet 2000 software (Topcon Medical Systems Inc., Paramus, N.J.). Intravenous sodium fluorescein injection (12 mg/kg) was performed 48 hours after intravitreal injection of VEGF. Late-phase angiography was performed 4-6 min after intravenous sodium fluorescein injection, […]

diabetic retinopathy [2] = assay: Oral doxycycline in patients suffering from diabetic retinopathy; type: in vivo, Humans; conditions: 50 mg orally twice a day for eight weeks
Procedure: (§1) Ten patients suffering from diabetic retinopathy are treated with oral doxycycline 50 mg orally twice a day for eight weeks. The patients are monitored for improvement of macular edema and vascular leakage by fluorescein angiography and scanning ocular fluorophotometry. Decreased vascular leakage in response to doxycycline administration is observed, which leads to a decrease in edema and improved visual acuity.

diabetic retinopathy [3] = assay: Topical doxycycline in patients suffering from diabetic retinopathy; type: in vivo, Humans; conditions: between 0.025% and 0.1% daily for one month
Procedure: as §1, with “topical doxycycline. Two patients each are administered” for “oral”, “at” for “50 mg orally twice”, “concentration selected to be between 0.025% and 0.1% daily” for “day”, “one month.” for “eight weeks.”, “acuity in most or all of the patients treated.” for “acuity.”

pre-IL-1β = pre-IL-1β cleavage by ELISA in human choroidal cultures; type: cell-based; conditions: 0.001% to 5.0% doxycycline
[4] = most or all of the patients treated

Row | Compound | Edema, mean score ([1]; Combined Eyes) | Hemorrhage/Microaneurism, mean score ([1]; Combined Eyes) | Leakage, mean score ([1]; Combined Eyes) | Edema, Difference (Doxy-Vehicle) / (Kenalog-Vehicle) ([1]; Combined Eyes) | Hemorrhage/Microaneurism, Difference (Doxy-Vehicle) / (Kenalog-Vehicle) ([1]; Combined Eyes) | Leakage, Difference (Doxy-Vehicle) / (Kenalog-Vehicle) ([1]; Combined Eyes) | Edema, mean score ([1]; Left Eye) | Hemorrhage/Microaneurism, mean score ([1]; Left Eye) | Leakage, mean score ([1]; Left Eye) | Edema, Difference (Doxy-Vehicle) / (Kenalog-Vehicle) ([1]; Left Eye) | Hemorrhage/Microaneurism, Difference (Doxy-Vehicle) / (Kenalog-Vehicle) ([1]; Left Eye) | Leakage, Difference (Doxy-Vehicle) / (Kenalog-Vehicle) ([1]; Left Eye) | Edema, mean score ([1]; Right Eye) | Hemorrhage/Microaneurism, mean score ([1]; Right Eye) | Leakage, mean score ([1]; Right Eye) | Edema, Difference (Doxy-Vehicle) / (Kenalog-Vehicle) ([1]; Right Eye) | Hemorrhage/Microaneurism, Difference (Doxy-Vehicle) / (Kenalog-Vehicle) ([1]; Right Eye) | Leakage, Difference (Doxy-Vehicle) / (Kenalog-Vehicle) ([1]; Right Eye) | Edema ([1]; combined eyes) [units] | Hemorrhage/microaneurism ([1]; combined eyes) [units] | also measured
1 | C[C@H]1c2cccc(O)c2C(O)=C2C(=O)[C@]3(O)C(O)=C(C(N)=O)C(=O)[C@@H](N(C)C)[C@@H]3[C@@H](O)[C@@H]21 [Doxy, doxycycline] | 2.00 | 1.63 | 2.06 | −0.69 | −0.94 | −0.75 | 3.25 | 2.25 | 3.13 | 0.50 | 0.00 | 0.38 | 1.75 | 2 | 1.75 | −0.25 | −0.25 | −0.50 | 2.0 | 1.63 | VEGF-mediated retinal vascular damage ([1]; as compared to the rabbits that received vehicle): reduced; Leakage ([1]; combined eyes): 2.06 units; Edema ([1]; left eye): 3.25 units; Hemorrhage/microaneurism ([1]; left eye): 2.25 units; Leakage ([1]; left eye): 3.13 units; Edema ([1]; right eye): 1.75 units; Hemorrhage/microaneurism ([1]; right eye): 2.0 units; Leakage ([1]; right eye): 1.75 units; Edema (diabetic retinopathy [2]): decrease; visual acuity (diabetic retinopathy [2]): improved; vascular leakage (diabetic retinopathy [2]; fluorescein angiography and scanning ocular fluorophotometry): Decreased; vascular leakage (diabetic retinopathy [3]): Decreased; Edema (diabetic retinopathy [3]; [4]): decrease; visual acuity (diabetic retinopathy [3]; [4]): improved; pre-IL-1β cleavage (pre-IL-1β): correlate directly with increasing doxycycline concentrations
2 | CC1(C)O[C@@H]2C[C@H]3[C@@H]4CCC5=CC(=O)C=C[C@]5(C)[C@@]4(F)[C@@H](O)C[C@]3(C)[C@]2(C(=O)CO)O1 [Kenalog, triamcinolone acetonide] | 1.13 | 1.00 | 0.25 | −1.56 | −1.56 | −2.56 | 1.25 | 1.13 | 0.50 | −1.50 | −1.13 | −2.25 | 1.13 | 0.75 | 0.25 | −0.88 | −1.50 | −2.00 | 1.13 | 1.00 | Edema, Difference (Kenalog-Doxy) ([1]; Combined Eyes): −0.88; Hemorrhage/Microaneurism, Difference (Kenalog-Doxy) ([1]; Combined Eyes): −0.63; Leakage, Difference (Kenalog-Doxy) ([1]; Combined Eyes): −1.81; Edema, Difference (Kenalog-Doxy) ([1]; Left Eye): −2.00; Hemorrhage/Microaneurism, Difference (Kenalog-Doxy) ([1]; Left Eye): −1.13; Leakage, Difference (Kenalog-Doxy) ([1]; Left Eye): −2.63; Edema, Difference (Kenalog-Doxy) ([1]; Right Eye): −0.63; Hemorrhage/Microaneurism, Difference (Kenalog-Doxy) ([1]; Right Eye): −1.25; Leakage, Difference (Kenalog-Doxy) ([1]; Right Eye): −1.50; Leakage ([1]; combined eyes): 0.25 units; Edema ([1]; left eye): 1.25 units; Hemorrhage/microaneurism ([1]; left eye): 1.13 units; Leakage ([1]; left eye): 0.50 units; Edema ([1]; right eye): 1.13 units; Hemorrhage/microaneurism ([1]; right eye): 0.75 units; Leakage ([1]; right eye): 0.25 units
